The values that follow come from publication PMC11062922 (Nature Chemical Biology, 2023).

Structures are written as SMILES. Where two headings read alike, the source gives them in different places.

One experiment deals with T1, AAK1 (Homo sapiens, UniProt Q2M2I8).
T1 construct: to maximize the representation of endogenous proteins; endogenous in cells
Kind of experiment: Kinobeads two-dose competition binding: AAK1.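 Note: kinobeads competition pulldown from cell lysate, compound preincubated 45 min at 4 °C, bead-bound protein measured by label-free mass spectrometry against DMSO vehicle control.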

Another experiment concerns the target T2, GAK (Homo sapiens, UniProt O14976).
T2 construct: endogenous in cells
T2 sequence (O14976 1-1311): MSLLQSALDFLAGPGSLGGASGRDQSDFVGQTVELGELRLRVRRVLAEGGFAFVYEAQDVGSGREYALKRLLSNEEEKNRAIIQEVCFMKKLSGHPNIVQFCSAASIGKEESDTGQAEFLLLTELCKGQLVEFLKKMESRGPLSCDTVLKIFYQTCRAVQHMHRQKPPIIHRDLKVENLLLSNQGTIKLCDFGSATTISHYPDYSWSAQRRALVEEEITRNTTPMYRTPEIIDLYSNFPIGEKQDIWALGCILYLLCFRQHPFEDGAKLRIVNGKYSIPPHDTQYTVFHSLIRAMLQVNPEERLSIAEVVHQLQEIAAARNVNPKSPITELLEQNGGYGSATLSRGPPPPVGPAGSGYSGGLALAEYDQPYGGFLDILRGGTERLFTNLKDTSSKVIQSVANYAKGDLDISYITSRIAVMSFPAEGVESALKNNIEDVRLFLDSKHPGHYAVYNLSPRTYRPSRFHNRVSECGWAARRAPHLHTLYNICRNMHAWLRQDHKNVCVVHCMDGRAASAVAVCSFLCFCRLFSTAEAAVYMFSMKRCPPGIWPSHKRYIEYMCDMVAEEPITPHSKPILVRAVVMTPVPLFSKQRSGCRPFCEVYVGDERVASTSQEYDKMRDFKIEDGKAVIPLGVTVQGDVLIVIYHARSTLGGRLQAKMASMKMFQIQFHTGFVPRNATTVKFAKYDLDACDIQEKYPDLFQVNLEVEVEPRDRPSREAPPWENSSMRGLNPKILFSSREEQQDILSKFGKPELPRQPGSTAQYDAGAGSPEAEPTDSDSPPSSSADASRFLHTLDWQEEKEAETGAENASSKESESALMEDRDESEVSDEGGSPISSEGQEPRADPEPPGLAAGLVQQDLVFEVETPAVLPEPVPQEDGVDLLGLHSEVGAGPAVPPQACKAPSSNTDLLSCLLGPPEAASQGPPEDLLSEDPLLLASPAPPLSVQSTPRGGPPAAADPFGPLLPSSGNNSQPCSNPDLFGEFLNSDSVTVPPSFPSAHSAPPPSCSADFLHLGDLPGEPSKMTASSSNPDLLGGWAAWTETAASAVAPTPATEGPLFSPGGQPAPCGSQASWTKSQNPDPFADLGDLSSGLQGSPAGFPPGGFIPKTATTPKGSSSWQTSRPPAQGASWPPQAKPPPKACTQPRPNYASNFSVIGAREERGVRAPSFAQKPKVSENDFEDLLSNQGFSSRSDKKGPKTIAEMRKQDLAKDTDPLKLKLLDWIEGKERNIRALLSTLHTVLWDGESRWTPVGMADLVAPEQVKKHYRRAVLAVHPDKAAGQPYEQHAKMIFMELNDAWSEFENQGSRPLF
Briefly: Kinobeads two-dose competition binding: GAK. The conditions noted are these: for CATDS: target GAK. The text has this: (§1) Briefly, Kinobeads comprise seven broad-spectrum small molecule kinase inhibitors immobilized on Sepharose beads. […]. Compounds of interest are set to compete for target protein binding with Kinobeads in the lysate and the amount of a given protein bound to Kinobeads in the presence of a compound can be quantified relative to a dimethylsulfoxide (DMSO) vehicle control by label-free mass spectrometry. This assay measures the physical interaction of a compound with thousands of endogenous proteins in parallel and, when systematically increasing the concentration of competitor, enables the calculation of an apparent interaction constant ( Kdapp ) for each compound and protein.
(§2) Kinobeads pulldown experiments were performed as described previously[13],[14],[17] with minor modification. […] The protein concentration was adjusted to 5 mg ml^−1. Kinase inhibitors were spiked into 0.5 ml of cell lysate at final concentrations of 100 and 1,000 nM (or DMSO, 0.3, 1, 3, 10, 30, 100, 300 and 1,000 nM for full dose experiments). […] Lysates were incubated for 45 min at 4 °C. Subsequently, lysates were incubated with Kinobeads ε (17.5 µl of settled beads) for 30 min at 4 °C. To assess the degree of protein depletion from the lysates by Kinobeads, the flow through of the DMSO control was recovered for a pulldown of pulldown experiment where the lysate was incubated a second time with fresh Kinobeads. Beads were washed in three steps with buffer containing 0.4%, 0.2% and no IGEPAL. Bound proteins were reduced with 50 mM DTT in 8 M Urea, 40 mM Tris-HCl pH 7.4 for 30 min at room temperature. After alkylation with 55 mM chloroacetamide, the urea concentration was reduced to 1–2 M and proteins were digested with trypsin. Acidified peptides were desalted and concentrated using SepPak tC18 µEluation plates (Waters). Samples were frozen, dried by vacuum centrifugation and stored at −20 °C.
(§3) Each kinase inhibitor was processed together with all DMSO controls of the same plate. Additionally, each search was supplemented with five high quality DMSO controls for consistent peptide identification and protein grouping. The resultant file (proteinGroups.txt) was used for subsequent filtering, normalization, data visualization and target annotation that was automatically performed by a data processing pipeline built in house that used R (including the ‘drc’ and ‘heatmap’ packages). First, reverse hits, potential contaminants and not quantified proteins in the DMSO control samples were discarded. Protein raw and label-free quantification intensities were normalized to the median DMSO control intensity to obtain relative residual binding intensities for each protein group at every inhibitor concentration and standard deviations of the DMSO control intensity were calculated. IC50 values were estimated based on the following equation IC50=I×100−inhibition/inhibition where [I] is the inhibitor concentration that was used for IC50 calculation and ‘inhibition’ the relative residual binding intensity. […]. Estimated Kdapp values were then calculated by multiplying the estimated IC50 values with a protein-dependent correction factor that was limited to a maximum value of one. The correction factor accounts for the depletion of a target protein from the lysate by Kinobeads. The depletion can be measured by the ratio of the amount of protein captured in two consecutive pulldowns of the same DMSO control lysate. In this study, correction factors were determined in separate experiments using the same lysate mixture and the same bead batch. Correction factors were set to the median of all correction factors. Targets of kinase inhibitors were annotated using the previously published random forest classifier. A training data set was annotated manually. […]

The target in a further experiment is CSNK2A2 (Homo sapiens, UniProt P19784). Briefly: Kinobeads two-dose competition binding: CSNK2A2. Set-up: to maximize the representation of endogenous proteins; endogenous in cells. Conditions: for CATDS: target CSNK2A2.
Source text: as §1, §2, §3

For a further experiment, the target named is T3, ATM (Homo sapiens, UniProt Q13315).
T3 construct: endogenous in cells
Briefly: Kinobeads two-dose competition binding: ATM. Conditions: for CATDS: target ATM.
Source text: as §1, §2, §3

The next experiment deals with T4, BMP2K (Homo sapiens, UniProt Q9NSY1).
T4 construct: endogenous in cells
Briefly: Kinobeads two-dose competition binding: BMP2K. Conditions: for CATDS: target BMP2K.
Source text: as §1, §2, §3

A further experiment concerns the target T5, ABL2 (Homo sapiens, UniProt P42684).
T5 construct: endogenous in cells
Briefly: Kinobeads two-dose competition binding: ABL2. Conditions: sheet CATDS matrix 2; Gene Name ABL2.

Where [1] appears, read: sheet CATDS matrix 2, Gene Name AAK1.

Take `Nc1ncnc2[nH]c(-c3ccccc3)nc12` [AH5015_KCGS]: the CATDS at AAK1 (setting [1]) came to 0; at AAK1 (target AAK1), 0; on GAK it was 0.09213; on CSNK2A2, 0; at ATM, 0; at BMP2K, 0. Besides, the CATDS at ABL2 stood at 0. In addition, the potency estimated from few doses on CSNK2A2 (Kinobeads two-dose screen (binding), read-out: Kdapp CSNK2A2) was greater than 1000 nM.
Regarding `CCN1CCN(Cc2ccc(Nc3ncc(F)c(-c4cc(F)c5nc(C)n(C(C)C)c5c4)n3)nc2)CC1` [Abemaciclib], the CATDS was 0.04695 at AAK1 (setting [1]); 0.04695 on AAK1 (target AAK1); 0 at GAK; 0.06221 at CSNK2A2; 0 on ATM; 0 at BMP2K. On ABL2, this compound returned a CATDS of 0.
`CN(C)C/C=C/C(=O)Nc1cc2c(Nc3ccc(F)c(Cl)c3)ncnc2cc1O[C@H]1CCOC1` [Afatinib]: the CATDS at GAK, on CSNK2A2, on ATM and at BMP2K was 0 in each case.
As to `CCc1cc2c(cc1N1CCC(N3CCOCC3)CC1)C(C)(C)c1[nH]c3cc(C#N)ccc3c1C2=O` [Alectinib], the CATDS is recorded as 0 at AAK1 (setting [1]); 0 on AAK1 (target AAK1); 0.6004 at GAK; 0 on CSNK2A2; 0 at ATM; 0 at BMP2K. The same compound yielded a CATDS at ABL2 of 0.
With `N#CC1(c2ccc(NC(=O)c3cccnc3NCc3ccncc3)cc2)CCCC1` [Apatinib], the CATDS at AAK1 (setting [1]), at AAK1 (target AAK1), at GAK, at CSNK2A2, on ATM and on BMP2K was 0 in each case. Also, the CATDS on ABL2 was 0.
Consider `C#Cc1cccc(Nc2ncnc3cc(OC)c(OC4CCN(C)CC4)cc23)c1` [BI00007366], for which the CATDS at AAK1 (setting [1]) and on ABL2 was 0 each time. In addition, the potency estimated from few doses at GAK (Kinobeads two-dose, Drugmatrix - all 2, read-out: apparent Kd GAK) is 634 nM.
`CC(C)N1CC(=O)N(C)c2cnc(Nc3cccc(S(=O)(=O)CCN4CCOCC4)c3)nc21` [BI00009348]: the potency estimated from few doses is 662 nM on AAK1 (sheet "Kinobeads Drugmatrix - all", unit inferred, same values below 1000 recur in sheet "nanomolar", read-out: Kinobeads Drugmatrix - all: apparent Kd, AAK1); 112 nM on ATM (Kinobeads two-dose, Drugmatrix - all 2, read-out: apparent Kd ATM); 736 nM on BMP2K (Kinobeads two-dose, Drugmatrix - all 2, read-out: apparent Kd BMP2K). Moreover, the CATDS on AAK1 (setting [1]) is given as 0.07467; at ABL2, 0.
Consider `COc1cc(Nc2ncc3c(C)nc(-c4cc5ccccc5[nH]4)n3n2)cc(OC)c1OC` [GW869516X], for which the potency estimated from few doses on CSNK2A2 (CSNK2A2, read-out: Kinobeads Data) was 56 nM.
On to `C[C@]12O[C@H](C[C@]1(O)CO)n1c3ccccc3c3c4c(c5c6ccccc6n2c5c31)CNC4=O` [Lestaurtinib], for which the potency estimated from few doses at GAK (read-out: Lestaurtinib Drugmatrix value, Gene Name GAK) was 577 nM; at CSNK2A2 (read-out: Lestaurtinib Drugmatrix value, Gene Name CSNK2A2), 415 nM.
